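A five-concentration, 48-hour dose response in 96-well plates underlies each endpoint, interpolated linearly between surrounding concentrations. The concentration for 50% growth inhibition is given as GI50.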 Calls of active or inactive are those of the source. Cut-off read from the data, not from the text of the source: active = GI50 up to about 1.1 µM and inactive = higher.
Experiments:
Assay in all cases: inhibition of tumour cell growth, NCI panel, 48 h
Malme-3M = test system: Malme-3M
NCI-H522 = test system: NCI-H522
OVCAR-3 = test system: OVCAR-3
HL-60 = test system: HL-60
UACC-62 = test system: UACC-62
COLO 205 = test system: COLO 205
SK-MEL-5 = test system: SK-MEL-5
SF-268 = test system: SF-268
NCI-H23 = test system: NCI-H23
A498 = test system: A498
SK-MEL-28 = test system: SK-MEL-28
SN12C = test system: SN12C
HOP-92 = test system: HOP-92
OVCAR-5 = test system: OVCAR-5
HCC 2998 = test system: HCC 2998
HOP-62 = test system: HOP-62

Measured: GI50

C=CCOC(C)n1c(C)c(Br)c(=O)[nH]c1=O (stereo unspecified)
inactive: Malme-3M > 100 µM | NCI-H522 > 100 µM | OVCAR-3 > 100 µM | HL-60 > 100 µM | UACC-62 > 100 µM | COLO 205 > 100 µM | SK-MEL-5 > 100 µM | SF-268 > 100 µM | NCI-H23 > 100 µM | A498 > 100 µM | SK-MEL-28 > 100 µM | SN12C > 100 µM | HOP-92 > 100 µM | OVCAR-5 > 100 µM | HCC 2998 > 100 µM

CC(=O)OC1CC2C(C)(C)C(=O)C=C[C@]2(C)C2CCC3(C)C(=CCC3[C@H](CO)C[C@H](O)C(=O)C(C)(C)O)[C@]12C (stereo partly specified)
inactive: Malme-3M 14.7 µM | NCI-H522 23.6 µM | OVCAR-3 19.5 µM | HL-60 19.5 µM | UACC-62 14.2 µM | COLO 205 42.1 µM | SK-MEL-5 19 µM | SF-268 25.9 µM | NCI-H23 > 10 µM | A498 16.4 µM | SK-MEL-28 19.4 µM | SN12C 26.4 µM | OVCAR-5 31 µM | HCC 2998 18.1 µM

O=C1CCCCC12CCC/C2=N\O (stereo unspecified)
inactive: Malme-3M > 100 µM | NCI-H522 > 100 µM | OVCAR-3 > 100 µM | HL-60 > 100 µM | UACC-62 > 100 µM | COLO 205 > 100 µM | SK-MEL-5 > 100 µM | SF-268 > 100 µM | A498 > 100 µM | SK-MEL-28 > 100 µM | HOP-62 > 100 µM | SN12C > 100 µM | HCC 2998 > 100 µM

N#CC1(CCCCl)CCCCC1
inactive: Malme-3M > 100 µM | NCI-H522 > 100 µM | OVCAR-3 > 100 µM | HL-60 > 100 µM | UACC-62 > 100 µM | COLO 205 > 100 µM | SK-MEL-5 > 100 µM | SF-268 > 100 µM | NCI-H23 > 100 µM | A498 > 100 µM | SK-MEL-28 > 100 µM | SN12C > 100 µM | HOP-92 > 100 µM | OVCAR-5 > 100 µM | HCC 2998 > 100 µM

NC(CCCNCc1ccccc1)C(=O)O (stereo unspecified)
inactive: Malme-3M > 100 µM | NCI-H522 > 100 µM | OVCAR-3 > 100 µM | HL-60 > 100 µM | UACC-62 > 100 µM | COLO 205 > 100 µM | SK-MEL-5 > 100 µM | SF-268 > 100 µM | NCI-H23 > 100 µM | A498 > 100 µM | SK-MEL-28 > 100 µM | HOP-62 > 100 µM | SN12C > 100 µM | HOP-92 > 100 µM

CCCCCCCCCCCc1cc(=O)c2c(O)cccc2o1
inactive: Malme-3M > 100 µM | NCI-H522 71.1 µM | OVCAR-3 > 100 µM | HL-60 30.5 µM | UACC-62 > 100 µM | COLO 205 > 100 µM | SK-MEL-5 44.8 µM | SF-268 > 100 µM | NCI-H23 > 100 µM | SK-MEL-28 94.6 µM | HOP-62 > 100 µM | SN12C > 100 µM | HOP-92 > 100 µM | OVCAR-5 88.7 µM | HCC 2998 66.2 µM

CCc1ccc(Cc2ccc(CC)c(NC(=O)C(=O)Cc3nc4ccccc4nc3C)c2CC)c(CC)c1NC(=O)C(=O)Cc1nc2ccccc2nc1C
inactive: Malme-3M 81.3 µM | NCI-H522 26.4 µM | OVCAR-3 15 µM | HL-60 > 100 µM | UACC-62 > 100 µM | COLO 205 > 100 µM | SK-MEL-5 > 100 µM | SF-268 33.3 µM | NCI-H23 > 100 µM | A498 > 100 µM | SK-MEL-28 66.7 µM | HOP-62 > 100 µM | HOP-92 4.02 µM | OVCAR-5 > 100 µM | HCC 2998 62.5 µM

N#C/C(=C\c1cc(O)ccc1O)C(N)=O
inactive: Malme-3M 74 µM | NCI-H522 18.2 µM | OVCAR-3 38.6 µM | HL-60 14 µM | UACC-62 30.4 µM | COLO 205 33.3 µM | SF-268 35.1 µM | NCI-H23 36.2 µM | A498 41 µM | SK-MEL-28 37.1 µM | HOP-62 > 100 µM | SN12C 50.4 µM | HOP-92 34.4 µM | OVCAR-5 > 100 µM | HCC 2998 67.3 µM

CCOC1=C2N=C(Cc3ccccc3F)N=C2C(=O)c2ccccc21
inactive: Malme-3M > 100 µM | NCI-H522 > 100 µM | OVCAR-3 > 100 µM | HL-60 > 100 µM | UACC-62 > 100 µM | COLO 205 > 100 µM | SF-268 > 100 µM | NCI-H23 > 100 µM | SK-MEL-28 > 100 µM | HOP-62 > 100 µM | SN12C > 100 µM | HOP-92 > 100 µM | HCC 2998 > 100 µM

CCOC(=O)C(Cc1ccccc1)NC(=O)c1nc[nH]c1/N=N/N(C)C (stereo unspecified)
inactive: Malme-3M > 100 µM | NCI-H522 > 100 µM | OVCAR-3 > 100 µM | HL-60 > 100 µM | UACC-62 > 100 µM | COLO 205 > 100 µM | SK-MEL-5 > 100 µM | SF-268 > 100 µM | NCI-H23 > 100 µM | A498 > 100 µM | SK-MEL-28 > 100 µM | HOP-62 > 100 µM | SN12C > 100 µM | OVCAR-5 > 100 µM | HCC 2998 > 100 µM

COC12OCCN(C)C1=CC(=O)C1=NNC(C)C12 (stereo unspecified)
inactive: NCI-H522 > 100 µM | OVCAR-3 > 100 µM | HL-60 > 100 µM | UACC-62 > 100 µM | COLO 205 > 100 µM | SK-MEL-5 > 100 µM | NCI-H23 > 100 µM | A498 > 100 µM | SK-MEL-28 > 100 µM | SN12C > 100 µM | HOP-92 > 100 µM | HCC 2998 > 100 µM

COc1ccc(Nc2nc3cc(C(F)(F)F)ccc3nc2-c2ccccc2)cc1OC
inactive: Malme-3M 21.7 µM | NCI-H522 30 µM | OVCAR-3 18.7 µM | UACC-62 27.4 µM | COLO 205 29.3 µM | SK-MEL-5 20.3 µM | SF-268 38 µM | NCI-H23 25.7 µM | A498 52.1 µM | SK-MEL-28 19.8 µM | HOP-62 2.74 µM | SN12C 39.7 µM | HOP-92 1.16 µM | OVCAR-5 > 100 µM | HCC 2998 > 100 µM

O=C1c2ccccc2C(=O)C1C(c1ccc(F)cc1)C1C(=O)c2ccccc2C1=O
inactive: Malme-3M > 100 µM | NCI-H522 > 100 µM | OVCAR-3 > 100 µM | HL-60 37.8 µM | UACC-62 > 100 µM | COLO 205 > 100 µM | SK-MEL-5 > 100 µM | SF-268 > 100 µM | NCI-H23 > 100 µM | SK-MEL-28 > 100 µM | HOP-62 > 100 µM | SN12C > 100 µM | HOP-92 > 100 µM | OVCAR-5 > 100 µM | HCC 2998 > 100 µM

O=C(Nc1cc(Cl)c(Cl)cc1Cl)C(=O)C(C(=O)c1ccccc1)C1OC(=O)c2ccccc21 (stereo unspecified)
inactive: Malme-3M > 100 µM | NCI-H522 > 100 µM | OVCAR-3 > 100 µM | HL-60 > 100 µM | UACC-62 > 100 µM | COLO 205 > 100 µM | SF-268 > 100 µM | NCI-H23 > 100 µM | A498 > 100 µM | SK-MEL-28 > 100 µM | HOP-62 > 100 µM | SN12C > 100 µM | HOP-92 > 100 µM | OVCAR-5 > 100 µM | HCC 2998 > 100 µM

— ChEMBL document CHEMBL1201862, “PubChem BioAssay data set” (2004)
